{"source": "patent US20060099676A1", "about": "“Mammalian genes involved in rapamycin resistance and tumorgenesis: rapr6 genes” (priority 2002, published 2006)", "test_system": "N2a cells", "assay": "MTT proliferation assay: rapamycin mediated cell growth inhibition of N2a cells", "assay_type": "cell-based, mouse", "settings": "FIG. 7", "source_text": "In a preferred embodiment, an MTT proliferation assay (see, e.g., van de Loosdrechet, et al., 1994, J. Immunol. Methods 174: 311-320; Ohno et al., 1991, J. Immunol. Methods 145:199-203; Ferrari et al., 1990, J. Immunol. Methods 131: 165-172; Alley et al., 1988, Cancer Res. 48: 589-601; Carmichael et al., 1987, Cancer Res. 47:936-942; Gerlier et al., 1986, J. Immunol. Methods 65:55-63; Mosmann, 1983, J. Immunological Methods 65:55-63) is used to screen for a candidate agent in conjunction with rapamycin to inhibit the growth of rapamycin resistant cells. The cells are treated with chosen concentrations of the candidate agent and rapamycin for 4 to 72 hours. The cells are then incubated with a suitable amount of 3-(4,5-dimethylthiazol-2-yl)-2,5-diphenyitetrazoiium bromide (MTT) for 1-8 hours such that viable cells convert MTT into an intracellular deposit of insoluble formazan. After removing the excess MTT contained in the supernatant, a suitable MTT solvent, e.g., a DMSO solution, is added to dissolved the formazan. The concentration of […], which is proportional to the number of viable cells, is then measured by determining the optical density at 570 nm. A plurality of different concentrations of the candidate agent can be assayed to allow the determination of the concentrations of the candidate agent and rapamycin which causes 50% inhibition. […]"}
{"smiles": "CO[C@H]1C[C@@H]2CC[C@@H](C)[C@@](O)(O2)C(=O)C(=O)N2CCCC[C@H]2C(=O)O[C@H]([C@H](C)C[C@@H]2CC[C@@H](O)[C@H](OC)C2)CC(=O)[C@H](C)/C=C(\\C)[C@@H](O)[C@@H](OC)C(=O)[C@H](C)C[C@H](C)/C=C/C=C/C=C/1C", "note": "[rapamycin, 9,10,12,13,14,21,22,23,24,25,26,27, 32,33,34,34a-hexadecahydro-9,27-dihydroxy-3-[2-(4-hydroxy-3-methoxycyclohexyl)-1-methylethyl]-10,21-dimethoxy-6,8,12,14,20,26-hexamethyl-23,27-epoxy-3H-pyrido[2,1-c][1,4]oxaazacyclohentricontine-1,5,11,28,29(4H,6H,31H)-pentone]", "values": [{"measurement": "rapamycin concentration at which the growth of N2a cells is completely inhibited", "setting": "N2a cell line", "result": "≥ 1", "unit": "µM"}, {"measurement": "concentration at which N2a cells are sensitive to rapamycin mediated cell growth inhibition", "setting": "mouse neuroblastoma N2a cells, MTT assay", "result": 10, "unit": "nM"}]}
